Laboratory results reported in US20250339436A1, “CRYSTALLINE FORMS OF MRTX1133” (MIRATI THERAPEUTICS, INC., priority 2024, published 2025).
Entries after “also recorded” stand apart in the source; their conditions may differ. Marks after values point to notes of the source that are not given here.

Experiments:
Type in all cases: physicochemical
[1] = Accelerated stability study of MRTX1133 amorphous form vs crystalline Forms VIII and IX; conditions: for stability under the conditions tested (conclusion): 25° C./60% RH and 40° C./75% RH; for trend of impurity values and assay results: all tested storage conditions
Description: Chemical stability and water content studies were conducted on amorphous MRTX1133 and MRTX1133 Forms VIII and IX according to well-known methods summarized below.
The stability studies of the amorphous form were done as follows.
The required amount was placed in a clear Class A glass bottle, 24 mL, with closed-top cap, sealed in opaque resealable Zipper bag. Per each storage condition there was one bottle, and the sampling was performed from the same bottle. Each bottle was labeled with protocol number, compound ID, lot number and storage condition.
The experimental conditions for stability testing of Forms VIII and IX were similar. However, the samples were placed in double LDPE bags filled with nitrogen protection, then placed into a heat-sealed foil bag, and into an HDPE container containing desiccant packs.

[2] = Bulk stability studies of MRTX1133 Forms II, VI, VIII and IX (solid state, 1-2 weeks); conditions: for Initial Purity by UPLC: before storage
Description: Stability studies of all four forms were conducted according to well-known methods. The results are summarized below in Tables 4-11.

[3] = Thermogravimetric analysis (TGA)
Description: Thermogravimetric Analysis (TGA)
Instrument: Discovery 5500
Parameters: Nitrogen Flow balance 10 mL/min; sample 25 mL/min; start temperature: ambient condition (below 35° C.); final temperature: 300° C.; heating rate: 10° C./min; sample mass ˜2-10 mg. […]

[4] = Dynamic vapor sorption (DVS); conditions: 25° C./95% RH
Description: Dynamic Vapor Sorption (DVS)
Instrument: Intrinsic, Advantage or Adventure;
Total gas flow: 200 sccm; oven temperature: 25° C., solvent: water; method: • Cycle: 40-0-95-0-40% RH • Stage Step: 10% • Equilibrium: 0.002 dm/dt (%/min) Minimum dm/dt stability duration: 60 min • Maximum dm/dt stage time: 360 min

[5] = 40° C./75% RH, 2M, by HPLC, listed as amorphous
[6] = 40° C./75% RH, 3M, by HPLC, listed as amorphous
[7] = 25° C./60% RH, open container, 1 week
[8] = 25° C./60% RH, open container, 2 weeks
[9] = 25° C./92.5% RH, open container, 1 week
[10] = 25° C./92.5% RH, open container, 2 weeks
[11] = 40° C./75% RH, open container, 1 week
[12] = 40° C./75% RH, open container, 2 weeks
[13] = 60° C., tight container, 1 week
[14] = 60° C., tight container, 2 weeks

SMILES: C#Cc1c(F)ccc2cc(O)cc(-c3ncc4c(N5CC6CCC(C5)N6)nc(OC[C@@]56CCCN5C[C@H](F)C6)nc4c3F)c12 [Amorphous]
- stability under the conditions tested (conclusion) [1]: not stable
- Moisture ([1]; 25° C./60% RH, 1M): 3.4 % w/w
- Assay ([1]; 25° C./60% RH, 1M, by HPLC): 89.5 w/w %
- Total Impurities ≥ 0.05% ([1]; 25° C./60% RH, 1M, by HPLC): 4.35 Area %
- Moisture ([1]; 25° C./60% RH, 2M): 4.2 % w/w
- Assay ([1]; 25° C./60% RH, 2M, by HPLC): 87.7 w/w %
- Total Impurities ≥ 0.05% ([1]; 25° C./60% RH, 2M, by HPLC): 4.74 Area %
- Moisture ([1]; 25° C./60% RH, 3M): 4.6 % w/w
- Assay ([1]; 25° C./60% RH, 3M, by HPLC): 86.1 w/w %
- Total Impurities ≥ 0.05% ([1]; 25° C./60% RH, 3M, by HPLC): 6.13 Area %
- Moisture ([1]; 40° C./75% RH, 1M): 2.7 % w/w
- Assay ([1]; 40° C./75% RH, 1M, by HPLC): 82.8 w/w %
- Total Impurities ≥ 0.05% ([1]; 40° C./75% RH, 1M, by HPLC): 8.03 Area %
- Moisture ([1]; 40° C./75% RH, 2M): 5.2 % w/w
- Assay ([1]; 40° C./75% RH, 2M, by HPLC): 70.1 w/w %
- Total Impurities ≥ 0.05% ([1]; 40° C./75% RH, 2M, by HPLC): 13.21 Area %
- Assay [1, 5]: 70 w/w %
- Total Impurities ≥ 0.05% [1, 5]: 13.2 Area %
- Moisture ([1]; 40° C./75% RH, 3M): 5.8 % w/w
- Assay ([1]; 40° C./75% RH, 3M, by HPLC): 61.3 w/w %
- Total Impurities ≥ 0.05% ([1]; 40° C./75% RH, 3M, by HPLC): 17.75 Area %
- Assay [1, 6]: 61 w/w %
- Total Impurities ≥ 0.05% [1, 6]: 17.8 Area %
- Moisture ([1]; T(0)): 2.9 % w/w
- Total Impurities ≥ 0.05% ([1]; T(0), by HPLC): 2.24 Area %
- Total Impurities ≥ 0.05% ([1]; T(0), by HPLC, listed as amorphous): 2.2 Area %
- Assay ([1]; T(0), by Q-NMR): 94.2^b w/w %
- Assay ([1]; T(0), by Q-NMR, listed as amorphous): 94 w/w %
- trend of impurity values and assay results [1]: substantial increases in impurity values and corresponding decreases in assay results

SMILES: C#Cc1c(F)ccc2cc(O)cc(-c3ncc4c(N5C[C@H]6CC[C@@H](C5)N6)nc(OC[C@@]56CCCN5C[C@H](F)C6)nc4c3F)c12 [Form IX, 4-(4-((1R,5S)-3,8-diazabicyclo[3.2.1]octan-3-yl)-8-fluoro-2-(((2R,7aS)-2-fluorohexahydro-1H-pyrrolizin-7a-yl)methoxy)pyrido[4,3-d]pyrimidin-7-yl)-5-ethynyl-6-fluoronaphthalen-2-ol]
- Bulk (UPLC) purity [2, 7]: 98.0%
- Bulk (UPLC) purity [2, 8]: 98.0%
- Bulk (XRPD) form [2, 8]: No form change
- Bulk color [2, 8]: no change of color
- Bulk (UPLC) purity [2, 9]: 97.9%
- Bulk (UPLC) purity [2, 10]: 98.1%
- Bulk (XRPD) form [2, 10]: No form change
- Bulk color [2, 10]: no change of color
- Bulk (UPLC) purity [2, 11]: 97.8%
- Bulk (XRPD) form [2, 11]: No form change
- Bulk (UPLC) purity [2, 12]: 98.0%
- Bulk (XRPD) form [2, 12]: No form change
- Bulk color [2, 12]: no change of color
- Bulk (UPLC) purity [2, 13]: 97.9%
- Bulk (UPLC) purity [2, 14]: 98.1%
- Bulk (XRPD) form [2, 14]: No form change
- Bulk color [2, 14]: no change of color
- Initial Purity by UPLC [2]: 97.9%
- onset of degradation as estimated by TGA [3]: about 190 °C
- weight loss observed by TGA ([3]; before 190° C. (onset of degradation)): about 0.5%
- weight loss observed by TGA ([3]; before 190° C. (onset of degradation), listed as MRTX1133 Form IX): 0.5% weight loss observed
- stability under the conditions tested (conclusion) [1]: much more stable; also recorded: stable
- Moisture ([1]; 25° C./60% RH, 1M): 0.56 % w/w
- Assay ([1]; 25° C./60% RH, 1M, by HPLC): 98.0 w/w %
- Total Impurities ≥ 0.05% ([1]; 25° C./60% RH, 1M, by HPLC): 1.5 Area %
- Moisture ([1]; 25° C./60% RH, 2M): 0.65 % w/w
- Assay ([1]; 25° C./60% RH, 2M, by HPLC): 97.6 w/w %
- Total Impurities ≥ 0.05% ([1]; 25° C./60% RH, 2M, by HPLC): 1.4 Area %
- Moisture ([1]; 25° C./60% RH, 3M): 0.70 % w/w
- Assay ([1]; 25° C./60% RH, 3M, by HPLC): 98.2 w/w %
- Total Impurities ≥ 0.05% ([1]; 25° C./60% RH, 3M, by HPLC): 1.7 Area %
- Moisture ([1]; 25° C./60% RH, 6M): 0.66 % w/w
- Assay ([1]; 25° C./60% RH, 6M, by HPLC): 98.5 w/w %
- Total Impurities ≥ 0.05% ([1]; 25° C./60% RH, 6M, by HPLC): 1.7 Area %
- moisture content trend ([1]; 40° C./75% RH): relatively stable
- Moisture ([1]; 40° C./75% RH, 1M): 0.56 % w/w
- Assay ([1]; 40° C./75% RH, 1M, by HPLC): 97.6 w/w %
- Total Impurities ≥ 0.05% ([1]; 40° C./75% RH, 1M, by HPLC): 1.8 Area %
- Moisture ([1]; 40° C./75% RH, 2M): 0.63 % w/w
- Assay ([1]; 40° C./75% RH, 2M, by HPLC): 97.3 w/w %
- Total Impurities ≥ 0.05% ([1]; 40° C./75% RH, 2M, by HPLC): 1.8 Area %
- Moisture ([1]; 40° C./75% RH, 3M): 0.66 % w/w
- Assay ([1]; 40° C./75% RH, 3M, by HPLC): 96.5 w/w %
- Total Impurities ≥ 0.05% ([1]; 40° C./75% RH, 3M, by HPLC): 2.0 Area %
- Moisture ([1]; 40° C./75% RH, 6M): 0.70 % w/w
- Assay ([1]; 40° C./75% RH, 6M, by HPLC): 96.9 w/w %
- Total Impurities ≥ 0.05% ([1]; 40° C./75% RH, 6M, by HPLC): 2.3 Area %
- Moisture ([1]; T(0)): 0.94 % w/w
- Assay ([1]; T(0), by HPLC): 96.2 w/w %
- Total Impurities ≥ 0.05% ([1]; T(0), by HPLC): 1.2 Area %
- trend of impurity values and assay results [1]: no increases in impurity values and no decreases in assay results

SMILES: C#Cc1c(F)ccc2cc(O)cc(-c3ncc4c(N5C[C@H]6CC[C@@H](C5)N6)nc(OC[C@@]56CCCN5C[C@H](F)C6)nc4c3F)c12 [Form VIII, 4-(4-((1R,5S)-3,8-diazabicyclo[3.2.1]octan-3-yl)-8-fluoro-2-(((2R,7aS)-2-fluorohexahydro-1H-pyrrolizin-7a-yl)methoxy)pyrido[4,3-d]pyrimidin-7-yl)-5-ethynyl-6-fluoronaphthalen-2-ol]
- Bulk (UPLC) purity [2, 7]: 98.0%
- Bulk (UPLC) purity [2, 8]: 98.0%
- Bulk (XRPD) form [2, 8]: No form change
- Bulk color [2, 8]: no change of color
- Bulk (UPLC) purity [2, 9]: 98.1%
- Bulk (UPLC) purity [2, 10]: 98.0%
- Bulk (XRPD) form [2, 10]: No form change
- Bulk color [2, 10]: no change of color
- Bulk (UPLC) purity [2, 11]: 98.0%
- Bulk (XRPD) form [2, 11]: No form change
- Bulk (UPLC) purity [2, 12]: 98.1%
- Bulk (XRPD) form [2, 12]: No form change
- Bulk color [2, 12]: no change of color
- Bulk (UPLC) purity [2, 13]: 98.1%
- Bulk (UPLC) purity [2, 14]: 98.1%
- Bulk (XRPD) form [2, 14]: No form change
- Bulk color [2, 14]: no change of color
- Initial Purity by UPLC [2]: 98.0%
- water uptake by DVS [4]: about 1.3%
- water uptake by DVS ([4]; listed as MRTX1133 Form VIII): 1.3% water uptake at
- onset of degradation as estimated by TGA [3]: about 180 °C
- weight loss observed by TGA ([3]; before 180° C. (onset of degradation)): about 0.7%
- weight loss observed by TGA ([3]; before 180° C. (onset of degradation), listed as MRTX1133 Form VIII): 0.7% weight loss observed
- stability under the conditions tested (conclusion) [1]: much more stable; also recorded: stable
- Moisture ([1]; 25° C./60% RH, 1M): 0.64 % w/w
- Assay ([1]; 25° C./60% RH, 1M, by HPLC): 96.8 w/w %
- Total Impurities ≥ 0.05% ([1]; 25° C./60% RH, 1M, by HPLC): 2.1 Area %
- Moisture ([1]; 25° C./60% RH, 3M): 0.49 % w/w
- Assay ([1]; 25° C./60% RH, 3M, by HPLC): 97.3 w/w %
- Total Impurities ≥ 0.05% ([1]; 25° C./60% RH, 3M, by HPLC): 2.1 Area %
- Moisture ([1]; 25° C./60% RH, 6M): 0.53 % w/w
- Assay ([1]; 25° C./60% RH, 6M, by HPLC): 96.4 w/w %
- Total Impurities ≥ 0.05% ([1]; 25° C./60% RH, 6M, by HPLC): 1.9 Area %
- moisture content trend ([1]; 40° C./75% RH): relatively stable
- Moisture ([1]; 40° C./75% RH, 1M): 0.62 % w/w
- Assay ([1]; 40° C./75% RH, 1M, by HPLC): 96.6 w/w %
- Total Impurities ≥ 0.05% ([1]; 40° C./75% RH, 1M, by HPLC): 2.2 Area %
- Moisture ([1]; 40° C./75% RH, 3M): 0.54 % w/w
- Assay ([1]; 40° C./75% RH, 3M, by HPLC): 97.4 w/w %
- Total Impurities ≥ 0.05% ([1]; 40° C./75% RH, 3M, by HPLC): 2.3 Area %
- Moisture ([1]; 40° C./75% RH, 6M): 0.78 % w/w
- Assay ([1]; 40° C./75% RH, 6M, by HPLC): 96.1 w/w %
- Total Impurities ≥ 0.05% ([1]; 40° C./75% RH, 6M, by HPLC): 2.2 Area %
- Moisture ([1]; T(0)): 0.55 % w/w
- Assay ([1]; T(0), by HPLC): 96.9 w/w %
- Total Impurities ≥ 0.05% ([1]; T(0), by HPLC): 2.5 Area %
- trend of impurity values and assay results [1]: no increases in impurity values and no decreases in assay results
